This assay deals with MCF-7 cells. Briefly: Western blot analysis of protein expression. Format: cell-based, human. As for the experimental part:
Total protein was extracted from treated and untreated cells using lysis buffer (10 mM Tris-HCl (pH 7.5), 1 mM EDTA, 1% Triton X-100, 150 mM NaCl, 1 mM dithiothretol, 10% glycerol, 0.2 mM phenylmethysulphonyl fluoride and protease inhibitors) for 30–50 min on ice. The extracts were centrifuged at 13,000× g for 15 min at 4 °C to remove cell debris. Folin Lowry (Pierce, Grand Island, NY, USA) protein assay was used to figure the protein concentration in the cell lysates. Proteins were resolved by electrophoresis on 8%–10% sodium dodecyl sulphate-polycrylamide gel loading equal amount of proteins per lane. The resolved proteins were transferred onto polyvinylidene difluoride (PVDF) membrane and then probed with primary antibody against the protein of interest prepared in 5% milk/PBS-T. The membrane was washed using phosphate buffer saline with Tween 20 (PBS-T) and then appropriate secondary antibody conjugated to horseradish peroxidase (HRP) was used for visualization of the bands using ECL chemiluminescence kit (GE, Fairfield, CT, USA). Anti-p27, anti-CDK2, anti-CDK4, anti-(p21), anti-(p53), anti-Bax, anti-Akt, anti-Bcl-2, anti-MDM2, anti-cytochrome C, anti-caspase-8, anti-procaspase-8, anti-FAS, anti-VEGF, anti-MMP-9, anti-β-catenin were purchased from SantaCruz (Dallas, TX, USA). Pixel density of the proteins studied was calculated using Image J, version 1.41o, NIH (Bethesda, MD, USA). The values obtained were first normalized to loading control β-actin and the fold change was measured by normalizing to that of the control (0 h) value. At least two independent experiments were performed.
(In general: Immunoblotting shows a protein as a band on a membrane.)

As for `COc1ccc(-c2cc(-c3ccc(OC)c(OC)c3)c(C#N)c(OCC(=O)NNC(=O)c3ccccc3)n2)cc1OC` [Compound 9a, N'-[2-(3-cyano-4,6-bis(3,4-dimethoxyphenyl)pyridin-2-yloxy)acetyl]benzohydrazide], under “2 μM, 24 h”, the “expression of CDK2” value is listed as “decreased”, the “expression of CDK4” value is reported as “decreased”, the “expression of MMP-9” value is reported as “significantly inhibited” and the “expression of VEGF” value is “significantly inhibited”. For the setting “2 μM, 24 h”, the “expression of caspase-3” value was “up-regulated”, the “expression of p27” value is given as “increased”, the “level of Akt” value was “decreased” and the “level of Bcl-2 protein” value is recorded as “decreased”. Moreover, under “2 μM, 24 h”, the “level of MDM2” value is on record as “decreased” and the “level of procaspase 3” value is listed as “decreased”. In addition, the “expression of cytochrome c in cytoplasm” value (2 μM, 24 h, cytosol fraction) is on record as “increased”. Also, under “2 μM, 24 h, mitochondrial fraction”, the “expression of cytochrome c in mitochondria” value was “reduced”. Under “2 μM, 24 h, vs untreated cells”, the “level of Bax” value is listed as “increased”, the “level of p21” value is listed as “increased” and the “level of p53” value was “increased”. Moreover, under “0.5, 1 and 2 μM, 24 h”, the “expression of phospho AKT” value is “reduced the expression of phospho AKT and β-catenin in dose-dependent manner”; the “expression of β-catenin” value is “reduced the expression of phospho AKT and β-catenin in dose-dependent manner”. Also, under “treated vs untreated”, the “expression of FAS” value was “no significant change”, the “expression of caspase-8” value is “no significant change” and the “expression of procaspase-8” value was “no significant change”.

Source of the values: paper PMC6274259, “New 3-Cyano-2-Substituted Pyridines Induce Apoptosis in MCF 7 Breast Cancer Cells” (Molecules, 2016).
